From PMC5917001, “Counter-ion effect on antistaphylococcal activity and cytotoxicity of selected antimicrobial peptides” (Amino Acids, 2018)
Where no end group is shown, it is not given here.

How the values were obtained:
[1] = system: S. aureus (29): reference (5) and clinical (24) strains; settings: for Mean value of MIC: mean over 29 S. aureus strains (Table 5); for Mean MIC values: mean over 29 S. aureus strains, as repeated in Table 6; for MIC range among strains: range over all S. aureus strains and the salts of the peptide
Description: Microbiological assays were performed using reference and clinical strains of Staphylococcus aureus. Minimal inhibitory concentrations (MIC) were determined by broth microdilution method on 96-well polystyrene plates according to Clinical and Laboratory Standards Institute (CLSI) recommendations [Clinical and Laboratory Standards Institute (CLSI) [2012]]. […] All plates were incubated for 18 h at 37 °C. […] Reference strains of S. aureus: ATCC 6538, ATCC 6538/P, ATCC 9144, ATCC 12598, and ATCC 25923 were obtained from the Polish Collection of Microorganisms (PCM, Polish Academy of Sciences, Wrocław), whereas 24 clinical strains were isolated from the patients of the Clinic of Dermatology, Venereology and Allergology (Medical University of Gdańsk). Nine strains were characterized as methicillin-resistant (MRSA). Preliminary identification and detection was conducted on the ChromID MRSA/ChromID S. aureus biplate (bioMérieux) for the simultaneous detection of S. aureus and methicillin-resistant S. aureus (MRSA). All experiments were conducted at least in triplicate.
To asses an overall activity of peptides, the mean MIC values were calculated.

[2] = system: S. aureus 060S; format: cell-based, Staphylococcus aureus; settings: clinical strain, broth microdilution, 0.5 × 10^5 CFU/mL, 18 h, 37 °C, at least triplicate
Description: (§1) Microbiological assays were performed using reference and clinical strains of Staphylococcus aureus. Minimal inhibitory concentrations (MIC) were determined by broth microdilution method on 96-well polystyrene plates according to Clinical and Laboratory Standards Institute (CLSI) recommendations [Clinical and Laboratory Standards Institute (CLSI) [2012]]. For this purpose, the initial inoculums of 0.5 × 10^5 CFU/mL of bacteria were exposed to a range of concentrations of the peptides (0.5–256 µg/mL). All plates were incubated for 18 h at 37 °C. MIC was taken as the lowest concentration of the compound at which the growth of bacteria was not observed. Reference strains of S. aureus: ATCC 6538, ATCC 6538/P, ATCC 9144, ATCC 12598, and ATCC 25923 were obtained from the Polish Collection of Microorganisms (PCM, Polish Academy of Sciences, Wrocław), whereas 24 clinical strains were isolated from the patients of the Clinic of Dermatology, Venereology and Allergology (Medical University of Gdańsk). Nine strains were characterized as methicillin-resistant (MRSA). Preliminary identification and detection was conducted on the ChromID MRSA/ChromID S. aureus biplate (bioMérieux) for the simultaneous detection of S. aureus and methicillin-resistant S. aureus (MRSA). All experiments were conducted at least in triplicate.

[3] = system: S. aureus 048S; format: cell-based, Staphylococcus aureus; settings: clinical strain, broth microdilution, 0.5 × 10^5 CFU/mL, 18 h, 37 °C, at least triplicate
Description: as §1

[4] = system: S. aureus 001N (MRSA); format: cell-based, Staphylococcus aureus; settings: clinical strain, broth microdilution, 0.5 × 10^5 CFU/mL, 18 h, 37 °C, at least triplicate
Description: as §1

[5] = system: S. aureus 053N; format: cell-based, Staphylococcus aureus; settings: clinical strain, broth microdilution, 0.5 × 10^5 CFU/mL, 18 h, 37 °C, at least triplicate
Description: as §1

[6] = system: S. aureus 024N (MRSA); format: cell-based, Staphylococcus aureus; settings: clinical strain, broth microdilution, 0.5 × 10^5 CFU/mL, 18 h, 37 °C, at least triplicate
Description: as §1

[7] = system: S. aureus 005S; format: cell-based, Staphylococcus aureus; settings: clinical strain, broth microdilution, 0.5 × 10^5 CFU/mL, 18 h, 37 °C, at least triplicate
Description: as §1

[8] = system: S. aureus 033N; format: cell-based, Staphylococcus aureus; settings: clinical strain, broth microdilution, 0.5 × 10^5 CFU/mL, 18 h, 37 °C, at least triplicate
Description: as §1

[9] = system: S. aureus 051N (MRSA); format: cell-based, Staphylococcus aureus; settings: clinical strain, broth microdilution, 0.5 × 10^5 CFU/mL, 18 h, 37 °C, at least triplicate
Description: as §1

[10] = system: S. aureus 045N; format: cell-based, Staphylococcus aureus; settings: clinical strain, broth microdilution, 0.5 × 10^5 CFU/mL, 18 h, 37 °C, at least triplicate
Description: as §1

[11] = system: S. aureus 051S; format: cell-based, Staphylococcus aureus; settings: clinical strain, broth microdilution, 0.5 × 10^5 CFU/mL, 18 h, 37 °C, at least triplicate
Description: as §1

[12] = system: S. aureus 013S; format: cell-based, Staphylococcus aureus; settings: clinical strain, broth microdilution, 0.5 × 10^5 CFU/mL, 18 h, 37 °C, at least triplicate
Description: as §1

[13] = system: S. aureus 002S; format: cell-based, Staphylococcus aureus; settings: clinical strain, broth microdilution, 0.5 × 10^5 CFU/mL, 18 h, 37 °C, at least triplicate
Description: as §1

[14] = system: S. aureus 001S (MRSA); format: cell-based, Staphylococcus aureus; settings: clinical strain, broth microdilution, 0.5 × 10^5 CFU/mL, 18 h, 37 °C, at least triplicate
Description: as §1

[15] = system: S. aureus 043SC (MRSA); format: cell-based, Staphylococcus aureus; settings: clinical strain, broth microdilution, 0.5 × 10^5 CFU/mL, 18 h, 37 °C, at least triplicate
Description: as §1

[16] = system: S. aureus ATCC 12598; format: cell-based, Staphylococcus aureus; settings: ATCC 12598, reference strain; broth microdilution, 0.5 × 10^5 CFU/mL, 18 h, 37 °C, at least triplicate
Description: as §1

[17] = system: S. aureus ATCC 9144; format: cell-based, Staphylococcus aureus; settings: ATCC 9144, reference strain; broth microdilution, 0.5 × 10^5 CFU/mL, 18 h, 37 °C, at least triplicate
Description: as §1

[18] = system: S. aureus K19N; format: cell-based, Staphylococcus aureus; settings: clinical strain, broth microdilution, 0.5 × 10^5 CFU/mL, 18 h, 37 °C, at least triplicate
Description: as §1

[19] = system: S. aureus ATCC 25923; format: cell-based, Staphylococcus aureus; settings: ATCC 25923, reference strain; broth microdilution, 0.5 × 10^5 CFU/mL, 18 h, 37 °C, at least triplicate
Description: as §1

[20] = system: S. aureus 039N; format: cell-based, Staphylococcus aureus; settings: clinical strain, broth microdilution, 0.5 × 10^5 CFU/mL, 18 h, 37 °C, at least triplicate
Description: as §1

[21] = system: S. aureus ATCC 6538; format: cell-based, Staphylococcus aureus; settings: ATCC 6538, reference strain; broth microdilution, 0.5 × 10^5 CFU/mL, 18 h, 37 °C, at least triplicate
Description: as §1

[22] = system: S. aureus 017S (MRSA); format: cell-based, Staphylococcus aureus; settings: clinical strain, broth microdilution, 0.5 × 10^5 CFU/mL, 18 h, 37 °C, at least triplicate
Description: as §1

[23] = system: S. aureus ATCC 6538/P; format: cell-based, Staphylococcus aureus; settings: reference strain, broth microdilution, 0.5 × 10^5 CFU/mL, 18 h, 37 °C, at least triplicate
Description: as §1

[24] = system: S. aureus 030N; format: cell-based, Staphylococcus aureus; settings: clinical strain, broth microdilution, 0.5 × 10^5 CFU/mL, 18 h, 37 °C, at least triplicate
Description: as §1

[25] = system: S. aureus 002N; format: cell-based, Staphylococcus aureus; settings: clinical strain, broth microdilution, 0.5 × 10^5 CFU/mL, 18 h, 37 °C, at least triplicate
Description: as §1

[26] = system: S. aureus 004N (MRSA); format: cell-based, Staphylococcus aureus; settings: clinical strain, broth microdilution, 0.5 × 10^5 CFU/mL, 18 h, 37 °C, at least triplicate
Description: as §1

[27] = system: S. aureus 017N (MRSA); format: cell-based, Staphylococcus aureus; settings: clinical strain, broth microdilution, 0.5 × 10^5 CFU/mL, 18 h, 37 °C, at least triplicate
Description: as §1

[28] = system: S. aureus 015N (MRSA); format: cell-based, Staphylococcus aureus; settings: clinical strain, broth microdilution, 0.5 × 10^5 CFU/mL, 18 h, 37 °C, at least triplicate
Description: as §1

[29] = system: S. aureus K50S; format: cell-based, Staphylococcus aureus; settings: clinical strain, broth microdilution, 0.5 × 10^5 CFU/mL, 18 h, 37 °C, at least triplicate
Description: as §1

[30] = system: S. aureus K46N; format: cell-based, Staphylococcus aureus; settings: clinical strain, broth microdilution, 0.5 × 10^5 CFU/mL, 18 h, 37 °C, at least triplicate
Description: as §1

Substance | Mean value of MIC [1] | Mean MIC values [1] [µg/mL] | MIC [2] [µg/mL] | MIC [3] [µg/mL] | MIC [4] [µg/mL] | MIC [5] [µg/mL] | MIC [6] [µg/mL] | MIC [7] [µg/mL] | MIC [8] [µg/mL] | MIC [9] [µg/mL] | MIC [10] [µg/mL] | MIC [11] [µg/mL] | MIC [12] [µg/mL] | MIC [13] [µg/mL] | MIC [14] [µg/mL] | MIC [15] [µg/mL] | MIC [16] [µg/mL] | MIC [17] [µg/mL] | MIC [18] [µg/mL] | MIC [19] [µg/mL] | also measured
FLPLIGRVLSGIL-NH2 [Temporin A AcO^−] | 4.2 µg/mL |  |  |  |  |  |  |  |  |  |  |  |  |  |  |  |  |  |  |  | 
FLPLIGRVLSGIL-NH2 [Temporin A Cl^−] | 5.7 µg/mL | 5.7 | 4 | 4 | 8 | 4 | 4 | 4 | 4 | 8 | 8 | 8 | 4 | 4 | 4 | 8 | 4 | 8 | 8 | 4 | MIC [20]: 4 µg/mL; MIC [21]: 4 µg/mL; MIC [22]: 8 µg/mL; MIC [23]: 8 µg/mL; MIC [24]: 4 µg/mL; MIC [25]: 4 µg/mL; MIC [26]: 4 µg/mL; MIC [27]: 8 µg/mL; MIC [28]: 8 µg/mL; MIC [29]: 4 µg/mL; MIC [30]: 8 µg/mL
FLPLIGRVLSGIL-NH2 [Temporin A TFA^−] | 5.9 µg/mL |  |  |  |  |  |  |  |  |  |  |  |  |  |  |  |  |  |  |  | 
GIGKFLKKAKKFGKAFVKILKK-NH2 [Pexiganan Cl^−] | 7.4 µg/mL |  |  |  |  |  |  |  |  |  |  |  |  |  |  |  |  |  |  |  | 
GIGKFLKKAKKFGKAFVKILKK-NH2 [Pexiganan TFA^−] | 8.4 µg/mL |  |  |  |  |  |  |  |  |  |  |  |  |  |  |  |  |  |  |  | 
GIGKFLKKAKKFGKAFVKILKK-NH2 [Pexiganan] |  |  |  |  |  |  |  |  |  |  |  |  |  |  |  |  |  |  |  |  | MIC range among strains [1]: 1 to 16 µg/mL
GLFDVIKKVASVIGGL-NH2 [Citropin 1.1 AcO^−] | 10.0 µg/mL | 10.0 | 1 | 16 | 16 | 16 | 2 | 2 | 8 | 8 | 16 | 4 | 2 | 16 | 16 | 8 | 8 | 16 | 16 | 16 | MIC [20]: 8 µg/mL; MIC [21]: 4 µg/mL; MIC [22]: 8 µg/mL; MIC [23]: 8 µg/mL; MIC [24]: 16 µg/mL; MIC [25]: 16 µg/mL; MIC [26]: 8 µg/mL; MIC [27]: 4 µg/mL; MIC [28]: 8 µg/mL; MIC [29]: 1 µg/mL; MIC [30]: 16 µg/mL
GLFDVIKKVASVIGGL-NH2 [Citropin 1.1 Cl^−] | 10.0 µg/mL | 10.0 | 2 | 16 | 16 | 16 | 2 | 2 | 16 | 8 | 16 | 4 | 2 | 8 | 16 | 8 | 8 | 16 | 16 | 16 | MIC [20]: 16 µg/mL; MIC [21]: 4 µg/mL; MIC [22]: 4 µg/mL; MIC [23]: 8 µg/mL; MIC [24]: 16 µg/mL; MIC [25]: 16 µg/mL; MIC [26]: 8 µg/mL; MIC [27]: 4 µg/mL; MIC [28]: 8 µg/mL; MIC [29]: 1 µg/mL; MIC [30]: 16 µg/mL
GLFDVIKKVASVIGGL-NH2 [Citropin 1.1] |  |  |  |  |  |  |  |  |  |  |  |  |  |  |  |  |  |  |  |  | MIC range among strains [1]: 1 to 32 µg/mL
KWKLFKKIGAVLKVL-NH2 [CAMEL] | below 3.5 µg/mL |  |  |  |  |  |  |  |  |  |  |  |  |  |  |  |  |  |  |  | MIC range among strains [1]: ≤ 0.25 to 8 µg/mL
